In experiment [1] the target is purified human recombinant GK (Homo sapiens (Human), UniProt P35557). Put plainly: Glucokinase activity assay (coupled enzymatic, G6PD/NADH absorbance at 340 nm). In kind it is biochemical. The conditions noted are these: for EC50: EC50 of % change in S0.5 of glucokinase for glucose, sigmoidal fit, read-out: EC50 (with respect to % ΔS0.5); for Emax / % Emax (with respect to % ΔS0.5): Emax of % change in S0.5 of glucokinase for glucose, vehicle S0.5 = 0%, 0 mM glucose = 100%; for Emax: read-out: % Emax (with respect to % ΔS0.5). An excerpt:
The glucokinase (GK) assay is a coupled enzymatic assay. GK catalyzes the first step of glycolysis, the conversion of glucose to glucose-6-phosphate (G6P) in the presence of ATP. G6P in turn is converted by glucose-6-phosphate dehydrogenase (G6PD) to 6-phosphogluconate, a process that requires NAD, resulting in NADH formation. Since the GK-catalyzed step is the rate-limiting step of this coupled enzymatic process, the rate of accumulation of 6-phosphogluconate and NADH is directly proportional to the rate of glucose phosphorylation by GK. The rate of the GK-catalyzed reaction can therefore be measured by monitoring the increase in NADH absorbance at 340 nm.
The assay is carried out according to the protocol outlined in Hariharan et al (1997), Diabetes 46: 11-16. Briefly, the test compounds are incubated in a reaction mix containing 25 mM HEPES (pH 7.2), 10 mM MgCl2, 100 mM KCl, 5 mM ATP, 2 mM DTT, 0.5 mM NAD, 1 U/mL Leuconostoc mesenteroides G6PD, 0.3 U/mL of purified human recombinant GK, and different concentrations of glucose. Enzymatic activity is calculated from the initial reaction velocity, measured from the change in NADH absorbance as a function of time.
Compounds described in formula (I), in concentration ranges from 1.0 nM to 500 μM, are tested in the purified human recombinant glucokinase assay described above.
A compound is considered to be a glucokinase activator if it, in its testable range of concentrations, yields a higher rate of glucose phosphorylation than in its absence at a particular glucose concentration, for example at 5 mM glucose.
Compounds of general formula (I) are tested in the in vitro GK enzymatic assay to monitor dose-dependent effect on glucokinase activation (in kinetic mode), as described above, at various glucose concentrations. The S0.5 of glucokinase for glucose at different concentration of each compound of interest is calculated from the following modified version of the Michaelis-Menten equation, V=Vmax [S]^n/(S0.5^n+[S]^n), where [S] is the glucose concentration and n is the Hill coefficient (taken as 1.7 to account for the sigoidal kinetics of glucokinase with respect to glucose). The S0.5 is plotted against the log of the compound concentration. The change in the S0.5 of glucokinase (ΔS0.5) for glucose is calculated by subtracting the S0.5 at each concentration of the compound from the S0.5 in the vehicle control. The ΔS0.5 is then normalized to a percent scale, where the S0.5 in the vehicle control is set to 0% and 0 mM glucose is set to 100%. The % ΔS0.5 is then plotted against the log of the compound concentration. The EC50 and Emax of % change in S0.5 is obtained from the sigoidal fit of the data. Detailed protocol has been described in our copending application no. 409/CHE/2007 which is incorporated herein by reference. Characterization data of some representative glucokinase activators of the present disclosure, which are illustrative but not limiting, are given in table I below.

Another experiment concerns primary rat hepatocytes. The experiment in a line: Glycogen synthesis in primary rat hepatocytes. The class given is cell-based. The conditions noted are these: Hepatocyte, 10 μM concentration, primary hepatocytes from male Wistar rats, D-[U14C]-glucose, 3 hours, read-out: Glycogen synthesis, fold increase over DMSO control. As for the experimental part: The glycogen deposition assay was carried out with few modifications in the original protocol as described in “Biochem J. 1990 Feb. 15; 266(1): 91-102”. In brief, primary hepatocytes were collected from male Wistar rats, and were seeded in a 48-well plate at a density of 150,000 cells/well in Minimal Essential Medium (MEM) containing 10% foetal calf serum (FCS) 100 nM insulin and 10 nM dexamethasone. followed by incubation for 4 hours at 37° C. The medium was replaced with fresh MEM containing 10% FCS and 10 nM dexamethasone and the cells were further incubated for 16 hours at 37° C. Following day, the medium was replaced with fresh MEM (serum-free) containing 2 μCi/ml of D-[U^14C]-glucose in the presence of the test compound. Hepatocytes were incubated for 3 hours at 37° C. followed by washing with 150 mM NaCl. Cells were lysed with 0.1 N NaOH, and the lysate was precipitated with 80% w/v trichloroacetic acid (TCA). Cell debris was pelleted by centrifugation, the supernatant was removed, and the glycogen was precipitated with 66% ethanol followed by drying overnight. Samples were dissolved in MiliQ water and transferred to 96 well reading plate, 100 μL scintillant was added per well and the plate was read in scintillation counter (MicroBeta Trilux, Perkin Elmer). Data was expressed as fold increase in glycogen synthesis over DMSO control (untreated hepatocytes).

The term EC50 denotes the midpoint of the concentration-response curve. The Emax is the greatest response seen or fitted, relative to the assay's reference.

Some results are limits rather than exact numbers.

Sequence of purified human recombinant GK (P35557 whole entry): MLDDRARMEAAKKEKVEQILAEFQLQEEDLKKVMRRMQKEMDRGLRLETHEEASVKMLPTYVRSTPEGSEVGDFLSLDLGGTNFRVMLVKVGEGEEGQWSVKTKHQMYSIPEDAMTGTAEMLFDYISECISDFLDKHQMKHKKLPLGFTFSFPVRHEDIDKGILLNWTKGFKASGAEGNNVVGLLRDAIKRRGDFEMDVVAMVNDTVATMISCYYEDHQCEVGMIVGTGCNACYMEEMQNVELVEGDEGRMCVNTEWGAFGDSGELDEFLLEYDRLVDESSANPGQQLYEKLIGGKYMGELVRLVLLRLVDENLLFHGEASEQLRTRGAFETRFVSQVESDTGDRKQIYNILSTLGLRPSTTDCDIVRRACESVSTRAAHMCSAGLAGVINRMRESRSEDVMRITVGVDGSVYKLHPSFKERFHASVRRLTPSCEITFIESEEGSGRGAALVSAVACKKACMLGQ

Consider `O=C(Nc1ncc(Oc2cccc(CO)c2)s1)C(OC1CCOCC1)c1ccc(S(=O)(=O)C2CC2)cc1` (single isomer, unassigned; (+)) [Example G20A, (+)2-(4-cyclopropylsulfonylphenyl)-N-[5-[3-(hydroxymethyl)phenoxy]thiazol-2-yl]-2-tetrahydro-pyran-4-yloxy-acetamide], for which, in experiment [1], the EC50 was 64 nM and the maximum response (Emax) was found to be 93%. In the experiment on primary rat hepatocytes, the fold induction at 10 µM was > 2.5.
Take `O=C(Nc1ncc(F)s1)C(OC1CCOCC1)c1ccc(S(=O)(=O)N2CCOCC2)cc1` (centres unmarked) [Example A-11, N-(5-fluorothiazol-2-yl)-2-(4-morpholinosulfonylphenyl)-2-tetrahydropyran-4-yloxy-acetamide]: in experiment [1], the EC50 was found to be 950 nM and the Emax worked out at 85%.
As to `O=C(NC1CC1)c1ccc(Oc2cnc(NC(=O)C(OC3CCOCC3)c3ccc(S(=O)(=O)C4CC4)cc3)s2)cc1` (centres unmarked) [Example C3, N-Cyclopropyl-4-[2-[[2-(4-cyclopropylsulfonylphenyl)-2-tetrahydropyran-4-yloxy-acetyl]amino]thiazol-5-yl]oxy-benzamide], in experiment [1], the half-maximal effective concentration (EC50) was determined as 130 nM and the Emax came to 94%.
For `COc1ccc2nc(NC(=O)C(OC3CCOCC3)c3ccc(S(=O)(=O)N4CCOCC4)cc3)sc2n1` (centres unmarked) [Example A-12, N-(5-methoxythiazolo[5,4-b]pyridin-2-yl)-2-(4-morpholinosulfonylphenyl)-2-tetrahydropyran-4-yloxy-acetamide], in that order: 660 nM and 88%.
`CC(C)(C)OC(=O)c1ccc(NC(=O)C(Oc2ccc(F)cc2F)c2ccc(S(=O)(=O)N3CCOCC3)cc2)nc1` (centres unmarked) [Example A-58, tert-Butyl 6-[[2-(2,4-difluorophenoxy)-2-(4-morpholinosulfonylphenyl)acetyl]amino]pyridine-3-carboxylate]: in experiment [1], the EC50 is > 10000 nM.
Consider `O=C(O)Cc1nc(NC(=O)C(OC2CCOCC2)c2ccc(S(=O)(=O)N3CCCCC3)cc2)sc1Cl` (centres unmarked) [Example B-12, 2-[5-chloro-2-[[2-[4-(1-piperidylsulfonyl)phenyl]-2-tetrahydropyran-4-yloxy-acetyl]amino]thiazol-4-yl]acetic acid], for which, in experiment [1], the half-maximal effective concentration (EC50) was 1120 nM and the Emax worked out at 90%.
Taken in the same sequence, the figures for `O=C(O)Cc1nc(NC(=O)C(OC2CCOCC2)c2ccc(S(=O)(=O)N3CCCCC3)cc2)sc1Cl` (single isomer, unassigned; (-)) [Example G3B, (−)2-[5-chloro-2-[[2-[4-(1-piperidylsulfonyl)phenyl]-2-tetrahydropyran-4-yloxy-acetyl]amino]thiazol-4-yl]acetic acid] were 420 nM and 94%.
Take `Cc1cc(Oc2cnc(NC(=O)C(Oc3ccc(F)cc3F)c3ccc(S(=O)(=O)C4CC4)cc3)s2)ccc1C(=O)O` (centres unmarked) [Example B-9, 4-[2-[[2-(4-cyclopropylsulfonylphenyl)-2-(2,4-difluorophenoxy)acetyl]amino]thiazol-5-yl]oxy-2-methyl-benzoic acid]: in experiment [1], the EC50 was determined as 93 nM and the maximal response (Emax) was 89%.
For `O=C(Nc1ncc(C(O)CO)s1)C(Oc1ccc(F)cc1F)c1ccc(S(=O)(=O)C2CC2)cc1` (centres unmarked) [Example E3, 2-(4-cyclopropylsulfonylphenyl)-2-(2,4-difluorophenoxy)-N-[5-(1,2-dihydroxyethyl)thiazol-2-yl]acetamide], in that order: 1200 nM and 88%.
In the case of `O=C(Nc1ncc(-n2cccn2)s1)C(Oc1ccc(F)cc1F)c1ccc(S(=O)(=O)C2CC2)cc1` (single isomer, unassigned; (-)) [Example G4B, (−)2-(4-cyclopropylsulfonylphenyl)-2-(2,4-difluorophenoxy)-N-(5-pyrazol-1-ylthiazol-2-yl)acetamide], in experiment [1], the EC50 is 640 nM and the “% Emax (with respect to % ΔS0.5)” value is 79%.
Consider `O=C(O)c1cnn(-c2cnc(NC(=O)C(OC3CCOCC3)c3ccc(S(=O)(=O)C4CC4)cc3)s2)c1` (single isomer, unassigned; (+)) [Example G12A, (+)1-[2-[[2-(4-cyclopropylsulfonylphenyl)-2-tetrahydropyran-4-yloxy-acetyl]amino]thiazol-5-yl]pyrazole-4-carboxylic acid], for which, in experiment [1], the concentration giving a half-maximal response (EC50) was found to be 300 nM and the Emax turned out to be 90%.
Taken in the same sequence, the figures for `O=C(Nc1ncc(-n2cccn2)s1)C(Oc1ccc(F)cc1F)c1ccc(S(=O)(=O)C2CC2)cc1` (single isomer, unassigned; (+)) [Example G4A, (+)2-(4-cyclopropylsulfonylphenyl)-2-(2,4-difluorophenoxy)-N-(5-pyrazol-1-ylthiazol-2-yl)acetamide] were 260 nM and 91%.
For `Cc1cc(Oc2cnc(NC(=O)C(O[C@@H]3CCOC3)c3ccc(S(=O)(=O)C4CC4)cc3)s2)ccc1C(=O)O` (single isomer, unassigned; (+)) [Example G14A], in that order: 380 nM and 99%.
As for `O=C(O)c1cccc(Oc2cnc(NC(=O)C(O[C@@H]3CCOC3)c3ccc(S(=O)(=O)C4CC4)cc3)s2)c1` (single isomer, unassigned; (+)) [Example G21A], in the experiment with primary rat hepatocytes, the fold induction at 10 µM was > 2.5.
`O=C(O)c1ccc(NC(=O)C(Oc2ccc(Cl)cc2)c2ccc(S(=O)(=O)C3CC3)cc2)nc1` (centres unmarked) [Example B-58, 6-[[2-(4-chlorophenoxy)-2-(4-cyclopropylsulfonylphenyl)acetyl]amino]pyridine-3-carboxylic acid]: in experiment [1], the EC50 came out at 740 nM and the Emax was found to be 89%.
For `O=C(O)c1cc(-c2ccc(Oc3cnc(NC(=O)C(OC4CCOCC4)c4ccc(S(=O)(=O)C5CC5)cc4)s3)cc2)no1` (centres unmarked) [Example B-26, 3-[4-[2-[[2-(4-cyclopropylsulfonylphenyl)-2-tetrahydropyran-4-yloxy-acetyl]amino]thiazol-5-yl]oxyphenyl]isoxazole-5-carboxylic acid], in experiment [1], the EC50 is 220 nM and the Emax is 92%.
For `CC(C)(C(=O)O)c1ccc(Oc2cnc(NC(=O)C(OC3CCOCC3)c3ccc(S(=O)(=O)C4CC4)cc3)s2)cc1` (single isomer, unassigned; (+)) [Example G5A, (+)2-[4-[2-[[2-(4-cyclopropylsulfonylphenyl)-2-tetrahydropyran-4-yloxy-acetyl]amino]thiazol-5-yl]oxyphenyl]-2-methyl-propanoic acid], in that order: 94 nM and 91%.
Turning to `Cc1cc(Oc2cnc(NC(=O)C(OC3CCOCC3)c3ccc(S(=O)(=O)C4CC4)cc3)s2)ccc1C(=O)O` (single isomer, unassigned; (-)) [Example G1B, (−)4-[2-[[2-(4-cyclopropylsulfonylphenyl)-2-tetrahydropyran-4-yloxy-acetyl]amino]thiazol-5-yl]oxy-2-methyl-benzoic acid], in experiment [1], the concentration for a half-maximal effect (EC50) is 330 nM and the “% Emax (with respect to % ΔS0.5)” value turned out to be 92%.

These data come from patent publication US9340506B2, “Acetamide derivatives as glucokinase activators, their process and medicinal applications” (ADVINUS THERAPEUTICS LIMITED, priority 2007, dated 2016).
